Results taken from patent US20070293544A1, “Novel 4-Arylamino Pyridone Derivatives as Mek Inhibitors for the Treatment of Hyper-Proliferative Disorders” (priority 2004, published 2007).

What was measured:
[1] = Microsomal stability assay, rat liver microsomes; type: in vitro ADME; conditions: male, Sprague Dawley, pooled rat liver microsomes, pH 7.4; 3 μM compound, 0.5 mg/ml rat liver microsomes, 37° C., 2 mM NADPH; read-out: RLM t½
Experimental: (§1) Assay 3: Microsomal Stability Assay
(§2) Compounds were tested on their stability in human, rat and mouse liver microsomal preparations (HLM, RLM and MLM respectively). At a final concentration of 3 μM, compounds were incubated at 37° C. with 0.5 mg/ml human, rat or mouse liver microsomes in a buffer containing 50 mM phosphate, pH 7.4 and 2 mM NADPH. Pooled human liver microsomes or pooled male rat liver microsomes (Sprague Dawley) were obtained from NatuTec (Frankfurt, Germany). Incubations without NADPH served as negative controls. Reactions were stopped after 0, 15, 30, 45 or 60 min by the addition of acetonitrile and microsomes were pelleted by centrifugation (10 min at 6200× g). Supernatants were analyzed by HPLC regarding the concentration of mother compound. Finally, the half-life of compounds in the regarding microsomal preparation was calculated.

human MEK1 = human MEK1 (Homo sapiens, UniProt Q02750); assay: Inhibition of human MEK1 kinase activity, time resolved fluorescence resonance energy transfer assay; type: biochemical; conditions: 100 nM MEK1, 15 μM ATP, 300 nM ERK2, two hours
Experimental: The activity of the compounds of the present invitation may be determined by the following procedure: Inhibition of human MEK1 kinase activity was monitored with a homogenous, fluorescence based assay. The assay uses time resolved fluorescence resonance energy transfer to probe for phosphorylation of […] by MEK1. The assay is carried out in low volume 96 well microtiterplates. In a total volume of 15 μl, compounds are incubated with 100 nM MEK1, 15 μM ATP, 300 nM ERK2 employing a buffer containing 20 mM TRIS/HCl, 10 mM MgCl2, 100 μM NaVO4, 1 mM DTT, and 0.005% Tween 20 (pH 7.4). After two hours, 5 nM Europium-anti-PY20 (Perkin Elmer) and 50 nM Anti-GST-Allophycocyanin (CisBio) in buffer containing 50 mM EDTA and 0,05% BSA are added and the reaction incubated for one hour in the dark. Time-resolved fluorescence is measured using a LJL-Analyst (Molecular Devices) with an excitation wavelength of 340 nm and an emission wavelength of 665 nm. The final concentration of DMSO is 2%. To assess the inhibitory potential of the compounds, IC50-values were determined.

[2] = Microsomal stability assay, human liver microsomes; type: in vitro ADME; conditions: pooled human liver microsomes, pH 7.4; 3 μM compound, 0.5 mg/ml human liver microsomes, 37° C., 2 mM NADPH; read-out: HLM t½
Experimental: as §1, §2

Murine colon C26 cells = assay: Tumor cell proliferation assay (ATP Lite), C26; type: cell-based; conditions: 4 days incubation
Experimental: (§3) Assay 2: Tumor Cell Proliferation Assays (ATP Lite)
(§4) Murine colon C26, human melanoma A375 and human melanoma Mel5 cells were plated in 96 well Corning white plates (1500 cells/well for C26, and 2000 cells/well for A375, and MiaPaCa-2) and cultured overnight at 37° C. in 5% CO2. Inhibitors were serially diluted in 100% DMSO and subsequently added to cells to reach a final concentration of 0.25% DMSO. The cells were incubated for 4 days in the presence of test compounds in cell growth media (DMEM with 10% fetal bovine serum, 2 mM glutamine for C26, and MiaPaCa-2, and RPMI with 10% fetal bovine serum, 2 mM glutamine for A375). Cell proliferation was quantitated using the ATP lite cell proliferation kit (Packard). Columns 2-4 show the concentration of compounds required to induce 50% cell death (IC50 in μM) of […]. With “+” meaning 100 μM<IC50≦10 μM and “++” IC50≦1 μM and “n.d.” means not determined.

[3] = system: human melanoma A375 cells; assay: Tumor cell proliferation assay (ATP Lite), A375; type: cell-based; conditions: 4 days incubation
Experimental: as §3, §4

Tumors = conditions: patients; cited from earlier work
[4] = in vivo; cited from earlier work
[5] = system: human melanoma Mel5 cells; assay: Tumor cell proliferation assay (ATP Lite), Mel5; type: cell-based; conditions: 4 days incubation
Experimental: as §3, §4

Sequence of human MEK1 (Q02750 whole entry): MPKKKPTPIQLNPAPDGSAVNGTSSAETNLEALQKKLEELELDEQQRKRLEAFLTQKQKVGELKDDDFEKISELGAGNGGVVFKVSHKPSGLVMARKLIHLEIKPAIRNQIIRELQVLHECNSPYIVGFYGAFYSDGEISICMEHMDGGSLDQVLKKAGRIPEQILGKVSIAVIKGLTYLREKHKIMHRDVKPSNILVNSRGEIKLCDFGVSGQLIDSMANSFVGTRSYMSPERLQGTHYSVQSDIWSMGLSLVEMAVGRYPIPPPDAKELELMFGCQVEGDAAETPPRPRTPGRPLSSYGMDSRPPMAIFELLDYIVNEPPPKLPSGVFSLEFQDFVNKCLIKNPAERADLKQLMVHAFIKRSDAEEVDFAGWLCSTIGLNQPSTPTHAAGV

SMILES | half-life at 3 μM [1] [h] | IC50 (human MEK1) [nM] | half-life at 3 μM [2] [h] | C26 cells IC50 (Murine colon C26 cells) | A375 cells IC50 [3] | efficacy in clinical phase II trials (Tumors) | bioavailability [4] | Mel5 cells IC50 [5]
C=CCNc1nnc(-c2cn(C)c(=O)cc2Nc2ccc(Br)cc2C)o1 [Compound 7a, 5-(5-Allylamino-[1,3,4]oxadiazol-2-yl)-4-(4-bromo-2-methyl-phenylamino)-1-methyl-1H-pyridin-2-one] | 0.517 to 2 | ≤ 1000 | 0.517 to 2 |  |  |  |  | 
Cc1cc(I)ccc1Nc1cc(=O)n(C)cc1C(=O)NOC[C@@H](O)CO [Compound 4c, 4-[(4-Iodo-2-methylphenyl)amino]-N-{[(2S)-2,3-dihydroxypropyl]oxy}-1-methyl-6-oxo-1,6-dihydropyridine-3-carboxamide] | > 2 | ≤ 1000 | > 2 | + (100 μM<IC50≦10 μM) | + (100 μM<IC50≦10 μM) |  |  | 
O=C(NOCC1CC1)c1ccc(F)c(F)c1Nc1ccc(I)cc1Cl [PD-184352] |  |  |  |  |  | lacking efficacy | low | 
Cc1cc(I)ccc1Nc1cc(=O)n(C)cc1C(=O)O [Compound 3b, 4-(4-Iodo-2-methyl-phenylamino)-1-methyl-6-oxo-1,6-dihydro-pyridine-3-carboxylic acid] |  | ≤ 1000 |  |  |  |  |  | 
Cc1cc(Br)ccc1Nc1cc(=O)n(C)cc1C(=O)O [Compound 3a, 4-(4-Bromo-2-methyl-phenylamino)-1-methyl-6-oxo-1,6-dihydro-pyridine-3-carboxylic acid] |  | ≤ 1000 |  | + (100 μM<IC50≦10 μM) | + (100 μM<IC50≦10 μM) |  |  | + (100 μM<IC50≦10 μM)
Cc1cc(Br)ccc1Nc1cc(=O)n(C)cc1C(=O)NO [Compound 4a, 4-(4-Bromo-2-methyl-phenylamino)-1-methyl-6-oxo-1,6-dihydro-pyridine-3-carboxylic acid hydroxyamide] |  | ≤ 1000 |  | + (100 μM<IC50≦10 μM) | + (100 μM<IC50≦10 μM) |  |  | + (100 μM<IC50≦10 μM)
Cc1cc(Br)ccc1Nc1cc(=O)n(C)cc1C(=O)NOC[C@@H](O)CO [Compound 4b, 4-[(4-Bromo-2-methylphenyl)amino]-N-{[(2S)-2,3-dihydroxypropyl]oxy}-1-methyl-6-oxo-1,6-dihydropyridine-3-carboxamide] | > 2 | ≤ 1000 | > 2 | + (100 μM<IC50≦10 μM) | + (100 μM<IC50≦10 μM) |  |  | + (100 μM<IC50≦10 μM)
